Data from patent US8404720B2, “Aryl sulfonamide amine compounds and their use as 5-HT6 ligands” (Suven Life Sciences Limited, priority 2008, dated 2013).

Tests used:
Human 5-HT6 Receptor = Human 5-HT6 Receptor (Homo sapiens, UniProt P50406); assay: Binding Assay for Human 5-HT6 Receptor ([3H]LSD radioligand); details: [3H]LSD 1.5 nM, human recombinant receptor in HEK293 cells; for % Inhibition at 100 nM: 100 nM test compound; for % Inhibition at 1000 nM: 1000 nM test compound; for % Inhibition at 10 nM: 10 nM test compound
Sequence of Human 5-HT6 Receptor (P50406 whole entry, the tested form may be a part): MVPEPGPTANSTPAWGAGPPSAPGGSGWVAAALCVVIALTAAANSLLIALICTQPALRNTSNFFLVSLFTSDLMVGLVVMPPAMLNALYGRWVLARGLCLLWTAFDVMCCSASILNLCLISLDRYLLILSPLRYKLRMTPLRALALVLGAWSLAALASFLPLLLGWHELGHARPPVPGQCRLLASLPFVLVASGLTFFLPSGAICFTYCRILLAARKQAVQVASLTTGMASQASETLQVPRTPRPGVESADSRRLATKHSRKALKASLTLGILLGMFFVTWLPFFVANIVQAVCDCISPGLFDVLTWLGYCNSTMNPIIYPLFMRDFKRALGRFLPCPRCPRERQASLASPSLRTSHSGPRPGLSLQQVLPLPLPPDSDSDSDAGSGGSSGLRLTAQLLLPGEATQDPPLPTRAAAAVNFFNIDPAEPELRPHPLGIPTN
Protocol: Receptor source: Human recombinant expressed in HEK293 cells
Radioligand: [^3H]LSD (60-80 Ci/mmol)
Final ligand concentration— [1.5 nM]
Non-specific determinant: Methiothepin mesylate— [0.1 μM]
Reference compound: Methiothepin mesylate
Positive control: Methiothepin mesylate
Reactions were carried out in 50 μM TRIS-HCl (pH 7.4) containing 10 μM MgCl2, 0.5 mM EDTA for 60 minutes at 37° C. The reaction was terminated by rapid vacuum filtration onto glass fiber filters. Radioactivity trapped onto the filters was determined and compared to control values in order to ascertain any interactions of test compound(s) with the cloned serotonin 5-HT6 binding site.

[1] = Rodent Brain Penetration Study; assay type: in vivo, Male Wister rats; details: Wistar/Male rat, Intravenous infusion, 1 mg/kg, brain/plasma
Protocol: Male Wister rats (230-280 grams) obtained from NIN (National Institute of Nutrition, Hyderabad, India) was used as an experimental animal. Three animals were housed in each cage. Animals were given water and food ad libitum throughout the experiment, and maintained on a 12 hours light/dark cycle.
Brain penetration was determined at steady state in rat. One day prior to dosing day, male wistar rats (225-250 grams) were anesthetized with halothane for surgical placement of jugular and femoral vein catheters. After surgery, the rats were housed in individual rat infusion cage connected with infusion components (Instech Solomon; Plymouth Meeting, Pa. USA) and allowed free access to food and water
NCE compound was dissolved in water and administered at a constant infusion rate (5 mL/kg/hr) over 6-10 hours at a target dose rate of 1.0 mg free base/kg/h. Blood samples were removed during the latter part of the infusion to confirm steady-state blood concentrations, brain and blood was collected and estimated. Animals will be sacrificed to collect the plasma and brain tissue and was homogenized. Plasma and Brain was stored frozen at −20° C. until analysis. The concentrations of the NCE compound in plasma and Brain were determined using LC-MS/MS method.
The NCE compounds were quantified in plasma and brain homogenate by validated LC-MS/MS method using solid phase extraction technique. NCE compounds were quantified in the calibration range of 1-500 ng/mL in plasma and brain homogenate. Study samples were analyzed using calibration samples in the batch and quality control samples spread across the batch. Extents of brain-blood ratio were calculated (Cb/Cp).

rats = assay: Water Maze (scopolamine induced reversal); assay type: in vivo; details: p.o.
Protocol: The water maze apparatus consisted of a circular pool (1.8 m diameter, 0.6 m high) constructed in black Perspex (TSE systems, Germany) filled with water (24±2° C.) and positioned underneath a wide-angled video camera to track animal. The 10 cm^2 perspex platform, lying 1 cm below the water surface, was placed in the centre of one of the four imaginary quadrants, which remained constant for all rats. The black Perspex used in the construction of the maze and platform offered no intramaze cues to guide escape behavior. By contrast, the training room offered several strong extramaze visual cues to aid the formation of the spatial map necessary for escape learning. An automated tracking system, [Videomot 2 (5.51), TSE systems, Germany] was employed. This program analyzes video images acquired via a digital camera and an image acquisition boards that determined path length, swim speed and the number of entries and duration of swim time spent in each quadrant of the water maze.

[2] = Rodent Pharmacokinetic Study; assay type: in vivo, Male wistar rats; details: Wistar/Male rat; for AUCt / T1/2 / Tmax / Cmax: 50% PEG-400 in water for injection; for Cmax: plasma; for Bioavailability: oral 10 mg/kg versus intravenous
Protocol: Male wistar rats (230-280 grams) obtained from NIN (National Institute of Nutrition, Hyderabad, India) were used as an experimental animal.
Three to five animals were housed in each cage. Animals were kept fasted over night and maintained on a 12 hours light/dark cycle. […]
At each time point blood was collected by jugular vein. Plasma was stored frozen at −20° C. until analysis. The concentrations of the NCE compound in plasma were determined using LC-MS/MS method.
Schedule time points: Pre dose. 0.25, 0.5, 1, 1.5, 2, 3, 4, 6, 8, 10, 12 and 24 hours after dosing (n=3). The NCE compounds were quantified in plasma by validated LC-MS/MS method using solid phase extraction technique. NCE compounds were quantified in the calibration range of 2-2000 ng/mL in plasma. Study samples were analyzed using calibration samples in the batch and quality control samples spread across the batch.
Pharmacokinetic parameters Cmax, Tmax, AUCt, AUCinf, half life, volume of distribution, clearance, mean residence time and thereby oral bioavailability were calculated by non-compartmental model using software WinNonlin version 5.1.

Male Wister rats = assay: Object Recognition Task Model; assay type: in vivo; details: rat, 3 mg/kg p.o.; for Exploration time mean ± S.E.M (sec), first value column / Exploration time mean ± S.E.M (sec), second value column: choice trial T2; for Exploration time mean ± S.E.M (sec), first value column: first of two columns (sub-head not printed, presumably familiar object); for Exploration time mean ± S.E.M (sec), second value column: second of two columns (sub-head not printed, presumably novel object); for Inference: object recognition task
Protocol: The cognition-enhancing properties of compounds of this invention were estimated using a model of animal cognition: the object recognition task model.
Male Wister rats (230-280 grams) obtained from N. I. N. (National Institute of Nutrition, Hyderabad, India) was used as experimental animals. Four animals were housed in each cage. Animals were kept on 20% food deprivation before one day and given water ad libitum throughout the experiment and maintained on a 12 hours light/dark cycle. Also the rats were habituated to individual arenas for 1 hour in the absence of any objects.
One group of 12 rats received vehicle (1 mL/Kg) orally and another set of animals received compound of the formula (I) either orally or i.p., before one hour of the familiar (T1) and choice trial (T2).
The experiment was carried out in a 50×50×50 cm open field made up of acrylic. In the familiarization phase, (T1), the rats were placed individually in the open field for 3 minutes, in which two identical objects (plastic bottles, 12.5 cm height×5.5 cm diameter) covered in yellow masking tape alone (a1 and a2) were positioned in two adjacent corners, 10 cm. from the walls. After 24 hours of the (T1) trial for long-term memory test, the same rats were placed in the same arena as they were placed in T1 trial. Choice phase (T2) rats were allowed to explore the open field for 3 minutes in presence of one familiar object (a3) and one novel object (b) (Amber color glass bottle, 12 cm high and 5 cm in diameter). Familiar objects presented similar textures, colors and sizes. During the T1 and T2 trial, explorations of each object (defined as sniffing, licking, chewing or having moving vibrissae whilst directing the nose towards the object at a distance of less than 1 cm) were recorded separately by stopwatch. Sitting on an object was not regarded as exploratory activity, however, it was rarely observed.
T1 is the total time spent exploring the familiar objects (a1+a2).
T2 is the total time spent exploring the familiar object and novel object (a3+b).
The object recognition test was performed as described by Ennaceur, A., Delacour, J., A new one-trial test for neurobiological studies of memory in rats—Behavioural data, Behay. Brain Res., 1988, 31, 47-59.

For `COc1ccc(NS(=O)(=O)c2ccc(C)cc2)cc1NC1CCN(C)CC1` [Example 10, 4-Methyl-N-[4-Methoxy-3-(1-methylpiperidin-4-ylamino)phenyl] benzenesulfonamide], the “% Inhibition at 100 nM” value (Human 5-HT6 Receptor) was 88.26% and the “% Inhibition at 1000 nM” value (Human 5-HT6 Receptor) was 99.2%.
In the case of `Cc1ccc(S(=O)(=O)Nc2ccc(Cl)c(NC3CCN(C)CC3)c2)cc1` [Example 3, 4-Methyl-N-[4-Chloro-3-(1-methylpiperidin-4-ylamino)phenyl] benzenesulfonamide], the “% Inhibition at 100 nM” value (Human 5-HT6 Receptor) is reported as 78.66% and the “% Inhibition at 1000 nM” value (Human 5-HT6 Receptor) is reported as 98.42%.
With `CN1CCC(Nc2cccc(NS(=O)(=O)c3ccccc3Br)c2)CC1` [Example 11, 2-Bromo-N-[3-(1-methylpiperidin-4-ylamino)phenyl] benzenesulfonamide] the “% Inhibition at 10 nM” value (Human 5-HT6 Receptor) was 8.56%, the “% Inhibition at 100 nM” value (Human 5-HT6 Receptor) was 64.11% and the “% Inhibition at 1000 nM” value (Human 5-HT6 Receptor) was 94.73%.
For `CN1CCC(Nc2cc(NS(=O)(=O)c3ccccc3Br)ccc2Cl)CC1` [Example 5, 2-Bromo-N-[4-Chloro-3-(1-methylpiperidin-4-ylamino)phenyl] benzenesulfonamide], the “% Inhibition at 100 nM” value (Human 5-HT6 Receptor) was 93.8% and the “% Inhibition at 1000 nM” value (Human 5-HT6 Receptor) was 101.6%.
In the case of `CN1CCC(Nc2cc(NS(=O)(=O)c3ccc(F)cc3)ccc2Cl)CC1` [Example 2, 4-Fluoro-N-[4-Chloro-3-(1-methylpiperidin-4-ylamino)phenyl] benzenesulfonamide], the “% Inhibition at 100 nM” value (Human 5-HT6 Receptor) is reported as 69.45% and the “% Inhibition at 1000 nM” value (Human 5-HT6 Receptor) is reported as 96.73%.
In the case of `Cc1ccc(S(=O)(=O)Nc2ccc(C)c(NC3CCN(C)CC3)c2)cc1` [Example 18, 4-Methyl-N-[4-Methyl-3-(1-Methylpiperidin-4-ylamino)phenyl] benzenesulfonamide], the “% Inhibition at 100 nM” value (Human 5-HT6 Receptor) is reported as 63.42% and the “% Inhibition at 1000 nM” value (Human 5-HT6 Receptor) is reported as 92.37%.
In the case of `CN1CCC(Nc2cccc(NS(=O)(=O)c3ccc(F)cc3)c2)CC1` [Example 13, 4-Fluoro-N-[3-(1-methylpiperidin-4-ylamino)phenyl] benzenesulfonamide], the “% Inhibition at 100 nM” value (Human 5-HT6 Receptor) is reported as 34.95% and the “% Inhibition at 1000 nM” value (Human 5-HT6 Receptor) is reported as 71.2%.
For `COc1ccc(NS(=O)(=O)c2ccccc2Br)cc1NC1CCN(C)CC1` [Example 8, 2-Bromo-N-[4-Methoxy-3-(1-methylpiperidin-4-ylamino)phenyl] benzenesulfonamide], the “Steady State Brain Penetration (Cb/Cp)” value [1] was 0.04 ± 0.01, the “Scopolamine Induced Reversal” value (rats) was “≦3 mg/kg, p.o” and the AUCt ([2]; Intravenous, 10 mg/kg) was 9919 ± 701 ng·h/mL. It also gave a T1/2 ([2]; Intravenous, 10 mg/kg) of 2.18 ± 0.54 h, a Tmax ([2]; Intravenous, 10 mg/kg) of 0.08 ± 0.0 h and a Cmax ([2]; Intravenous, 10 mg/kg) of 2645 ± 154 ng/mL. For the same molecule, the AUCt ([2]; Oral, 10 mg/kg) was 6222 ± 1025 ng·h/mL, the T1/2 ([2]; Oral, 10 mg/kg) was 5.40 ± 2.56 h and the Tmax ([2]; Oral, 10 mg/kg) was 1.67 ± 1.15 h. For the same molecule, the Cmax ([2]; Oral, 10 mg/kg) was 964 ± 110 ng/mL, the Bioavailability [2] was 63% and the “% Inhibition at 10 nM” value (Human 5-HT6 Receptor) was 71.95%. For the same molecule, the “% Inhibition at 100 nM” value (Human 5-HT6 Receptor) was 99.38%, the “% Inhibition at 1000 nM” value (Human 5-HT6 Receptor) was 100.63% and the “Exploration time mean ± S.E.M (sec), first value column” value (Male Wister rats) was 6.72 ± 1.95 s. For the same molecule, the “Exploration time mean ± S.E.M (sec), second value column” value (Male Wister rats) was 9.58 ± 2.26 s and the Inference (Male Wister rats) was “Active”.
`COc1ccc(NS(=O)(=O)c2ccccc2Br)cc1N(C)C1CCN(C)CC1` gave a melting point of 119.2 to 121.3 °C.
For `COc1ccc(NS(=O)(=O)c2ccc(F)cc2)cc1NC1CCN(C)CC1` [Example 6, 4-Fluoro-N-[4-Methoxy-3-(1-methylpiperidin-4-ylamino)phenyl] benzenesulfonamide], the “Steady State Brain Penetration (Cb/Cp)” value [1] was 0.05 ± 0.01, the “Scopolamine Induced Reversal” value (rats) was “≦3 mg/kg, p.o” and the AUCt ([2]; Intravenous, 10 mg/kg) was 4314 ± 967 ng·h/mL. For the same molecule, the T1/2 ([2]; Intravenous, 10 mg/kg) was 2.18 ± 1.29 h, the Tmax ([2]; Intravenous, 10 mg/kg) was 0.14 ± 0.10 h and the Cmax ([2]; Intravenous, 10 mg/kg) was 2885 ± 401 ng/mL. The AUCt ([2]; Oral, 10 mg/kg) was 1421 ± 106 ng·h/mL, the T1/2 ([2]; Oral, 10 mg/kg) was 5.35 ± 3.65 h and the Tmax ([2]; Oral, 10 mg/kg) was 2.17 ± 1.44 h. For the same molecule, the Cmax ([2]; Oral, 10 mg/kg) was 372 ± 85 ng/mL, the Bioavailability [2] was 34% and the “% Inhibition at 10 nM” value (Human 5-HT6 Receptor) was 20.71%. For the same molecule, the “% Inhibition at 100 nM” value (Human 5-HT6 Receptor) was 90.83%, the “% Inhibition at 1000 nM” value (Human 5-HT6 Receptor) was 99.64% and the “Exploration time mean ± S.E.M (sec), first value column” value (Male Wister rats) was 10.02 ± 1.54 s. For the same molecule, the “Exploration time mean ± S.E.M (sec), second value column” value (Male Wister rats) was 15.27 ± 1.32 s and the Inference (Male Wister rats) was “Active”.
For `Cc1ccc(NS(=O)(=O)c2ccccc2Br)cc1NC1CCN(C)CC1` [Example 15, 2-Bromo-N-[4-Methyl-3-(1-methylpiperidin-4-ylamino)phenyl] benzenesulfonamide], the “Steady State Brain Penetration (Cb/Cp)” value [1] was 0.35 ± 0.08, the “Scopolamine Induced Reversal” value (rats) was “≦3 mg/kg, p.o” and the AUCt ([2]; Intravenous, 5 mg/kg) was 1231 ± 52 ng·h/mL. For the same molecule, the T1/2 ([2]; Intravenous, 5 mg/kg) was 3.08 ± 2.11 h, the Tmax ([2]; Intravenous, 5 mg/kg) was 0.08 ± 0.0 h and the Cmax ([2]; Intravenous, 5 mg/kg) was 727 ± 18 ng/mL. For the same molecule, the AUCt ([2]; Oral, 10 mg/kg) was 2462 ± 901 ng·h/mL, the T1/2 ([2]; Oral, 10 mg/kg) was 3.15 ± 2.99 h and the Tmax ([2]; Oral, 10 mg/kg) was 2.33 ± 1.15 h. For the same molecule, the Cmax ([2]; Oral, 10 mg/kg) was 503 ± 263 ng/mL, the Bioavailability [2] was 99% and the “% Inhibition at 100 nM” value (Human 5-HT6 Receptor) was 99.44%. For the same molecule, the “% Inhibition at 1000 nM” value (Human 5-HT6 Receptor) was 104.28%, the “Exploration time mean ± S.E.M (sec), first value column” value (Male Wister rats) was 6.89 ± 1.54 s and the “Exploration time mean ± S.E.M (sec), second value column” value (Male Wister rats) was 13.26 ± 2.80 s. For the same molecule, the Inference (Male Wister rats) was “Active”.
In the case of `Cc1ccc(S(=O)(=O)Nc2cccc(NC3CCN(C)CC3)c2)cc1` [Example 14, 4-Methyl-N-[3-(1-methylpiperidin-4-ylamino)phenyl] benzenesulfonamide], the “% Inhibition at 100 nM” value (Human 5-HT6 Receptor) is reported as 45.25% and the “% Inhibition at 1000 nM” value (Human 5-HT6 Receptor) is reported as 80.78%.
For `Cc1ccc(NS(=O)(=O)c2ccc(F)cc2)cc1NC1CCN(C)CC1` [Example 17, 4-Fluoro-N-[4-Methyl-3-(1-Methylpiperidin-4-ylamino)phenyl] benzenesulfonamide], the “% Inhibition at 100 nM” value (Human 5-HT6 Receptor) was 64.27% and the “% Inhibition at 1000 nM” value (Human 5-HT6 Receptor) was 93.00%.
